22 molecules from patent US20050026987A1, “CBI analogues of the duocarmycins and CC-1065” (The Scripps Research Institute, priority 2003, published 2005) can be followed below.

The subject of this series is L1210. Nature of the series: L1210 cytotoxic potency. The note with it: for distinction NO2 versus OMe substituent (more potent than corresponding methoxy derivative): C5, C6, C7 nitro vs corresponding methoxy; for fold less potent than C5 acyl derivative 54: 52: versus the C5 acyl derivatives, 62: versus 54.
Setting [1] is: relative to (+)-CBI-indole (R=H).
The mark [2] stands for this setting: read-out: IC50 (cytotoxic potency), L1210.
The mark [3] stands for this setting: relative to CBI-TMI, IC50=30 pM.
The mark [4] stands for this setting: Mus musculus, L1210, read-out: IC50 (cytotoxic potency).

SMILES strings stand for the structures. Where “and” joins values, the source holds several entries; their conditions need not be identical. Equal entries are not always repeated. Where two headings read alike, the source gives them in different places.

Turning to `O=C1C=C2N(C(=O)c3cc4c(ccc5ccccc54)[nH]3)C[C@H]3C[C@@]23c2ccccc21` [(+)-77, N^2-[(Benz[e]indole-2-yl)carbonyl]-1,2,9,9a-tetrahydrocyclopropa[c]benz[e]indol-4-one], the “reduction in potency relative to the fused pyrrole 69 or the fused furan 71” value is reported as 6-8 fold. Further, under setting [1], the “reduction in cytotoxic potency compared to (+)-CBI-indole” value was 2 fold.
For the molecule `O=C1C=C2N(C(=O)c3cc4ccccc4[nH]3)CC3CC23c2ccccc21` [compound 5, N^2-[(Indole-2-yl)carbonyl]-(8bR,9aS)-1,2,9,9a-tetrahydrocyclopropa[c]benz[e]indol-4-one, reference compound], the IC50 under setting [2] is 0.05 nM.
On the same count and under the same terms, for `CSc1ccc2[nH]c(C(=O)N3CC4CC45C3=CC(=O)c3ccccc35)cc2c1` [compound 21, N^2-[(5-Thiomethylindole-2-yl)carbonyl]-(8bR,9aS)-1,2,9,9a-tetrahydrocyclopropa[c]benz-[e]indol-4-one] the value was 0.05 nM.
For the molecule `COc1ccc2[nH]c(C(=O)N3C[C@H]4C[C@@]45C3=CC(=O)c3ccccc35)cc2c1` [compound 7, N^2-[(5-Methoxyindole-2-yl)carbonyl]-(8bR,9aS)-1,2,9,9a-tetrahydrocyclopropa[c]benz[e]indol-4-one], the IC50 under setting [2] amounted to 0.05 nM. The “decrease in cytotoxic potency compared with CBI-TMI (4)” value under setting [3] was found to be 1.6 fold.
In the case of `COc1cccc2[nH]c(C(=O)N3C[C@H]4C[C@@]45C3=CC(=O)c3ccccc35)cc12` [compound 6, N^2-[(4-Methoxyindole-2-yl)carbonyl]-(8bR,9aS)-1,2,9,9a-tetrahydrocyclopropa[c]benz[e]indol-4-one], under setting [1], the “increase in cytotoxic potency over (+)-CBI-indole (5)” value turned out to be 4 fold. Under setting [3], the “decrease in cytotoxic potency compared with CBI-TMI (4)” value is 17 fold and 16-17 fold.
For `O=C(c1cc2cccc([N+](=O)[O-])c2[nH]1)N1C[C@@H](CCl)c2c1cc(O)c1ccccc21` [compound 51, 3-(7-Nitroindole-2-carbonyl)-1-(S)-(chloromethyl)-5-hydroxy-1,2-dihydro-3H-benz[e]indole], the “distinction NO2 versus OMe substituent (more potent than corresponding methoxy derivative)” value turned out to be 1.5 ×.
For `COc1c(O)c2c(c3cc(C(=O)N4CCc5c4c(O)c(OC)c4[nH]c(C(=O)N6CC7CC78C6=CC(=O)c6[nH]cc(C)c68)cc54)[nH]c13)CCN2C(N)=O` (stereo not shown) [CC-1065], the IC50 under setting [4] is 0.02 nM.
Take `O=C(c1cc2ccc([N+](=O)[O-])cc2[nH]1)N1C[C@@H](CCl)c2c1cc(O)c1ccccc21` [compound 50, 3-(6-Nitroindole-2-carbonyl)-1-(S)-(chloromethyl)-5-hydroxy-1,2-dihydro-3H-benz[e]indole]: the “distinction NO2 versus OMe substituent (more potent than corresponding methoxy derivative)” value came out at 5 ×.
As to `CCOc1ccc2[nH]c(C(=O)N3CC4CC45C3=CC(=O)c3ccccc35)cc2c1` [compound 15, N^2-[(5-Ethoxyindole-2-yl)carbonyl]-(8bR,9aS)-1,2,9,9a-tetrahydrocyclopropa[c]benz[e]indol-4-one], where the note is “C5 alkyl ethers relative to C5 OMe”, the “additional increase in cytotoxic potency versus C5 methoxy” value stood at 5 fold. Also, the IC50 under setting [2] is 0.01 nM.
`CCS(=O)(=O)c1ccc2[nH]c(C(=O)N3C[C@@H](CCl)c4c3cc(O)c3ccccc43)cc2c1` [compound 65, 3-(5-Ethylsulfonylindole-2-carbonyl)-1-(S)-(chloromethyl)-5-hydroxy-1,2-dihydro-3H-benz[e]indole]: the IC50 under setting [4] came out at 0.04 nM.
For the molecule `O=C1C=C2N(C(=O)c3cc4c5c(ccc4[nH]3)OCC5)CC3CC23c2ccccc21` [compound 70, N^2-[(1,2-Dihydropyrrolo[3,2-e]benzofuran-7-yl)carbonyl]-(8bR,9aS)-1,2,9,9a-tetrahydro-cyclopropa[c]benz[e]indol-4-one], the “relative cytotoxic potency in words” value is recorded as “slightly more potent than 7”.
For `Cc1ccc2[nH]c(C(=O)N3C[C@H]4C[C@@]45C3=CC(=O)c3ccccc35)cc2c1` [compound 24, N^2-[(5-Methylindole-2-yl)carbonyl]-(8bR,9aS)-1,2,9,9a-tetrahydrocyclopropa[c]benz[e]in-dol-4-one], the IC50 under setting [2] is 2 nM.
On to `O=C1CCc2c1ccc1[nH]c(C(=O)N3C[C@@H](CCl)c4c3cc(O)c3ccccc43)cc21` [compound 72, 3-(6-Oxo-cyclopenten[e]indole-2-carbonyl)-1-(S)-(chloromethyl)-5-hydroxy-1,2-dihydro-3H-benz[e]indole], for which the “relative cytotoxic potency in words” value was “matched the potency of the C5 substituted methyl and ethyl ketones 54 and 56”.
Take `CCSc1ccc2[nH]c(C(=O)N3CC4CC45C3=CC(=O)c3ccccc35)cc2c1` [compound 23, N^2-[(5-Thioethylindole-2-yl)carbonyl]-(8bR,9aS)-1,2,9,9a-tetrahydrocyclopropa[c]benz[e]indol-4-one]: the IC50 under setting [2] stood at 0.1 nM.
On to `COc1ccc2[nH]c(C(=O)N3CC4CC45C3=CC(=O)c3ccccc35)cc2c1OC` [compound 10, N^2-[(4,5-Dimethoxyindole-2-yl)carbonyl]-(8bR,9aS)-1,2,9,9a-tetrahydrocyclopropa[c]benz[e]indol-4-one], for which the “relative cytotoxic potency in words” value is recorded as “much less active”.
`N#Cc1ccc2[nH]c(C(=O)N3CC4CC45C3=CC(=O)c3ccccc35)cc2c1` [compound 31, N^2-[(5-Cyanoindole-2-yl)carbonyl]-(8bR,9aS)-1,2,9,9a-tetrahydrocyclopropa[c]benz[e]in-dol-4-one]: under setting [2], the concentration for half-maximal inhibition (IC50) stood at 0.03 nM.
In the case of `O=Cc1ccc2[nH]c(C(=O)N3C[C@@H](CCl)c4c3cc(O)c3ccccc43)cc2c1` [compound 52, 3-(5-Formylindole-2-carbonyl)-1-(S)-(chloromethyl)-5-hydroxy-1,2-dihydro-3H-benz[e]indole], the “fold less potent than C5 acyl derivative 54” value is on record as 50 fold.
With `CCc1ccc2[nH]c(C(=O)N3CC4CC45C3=CC(=O)c3ccccc35)cc2c1` [compound 25, N^2-[(5-Ethylindole-2-yl)carbonyl]-(8bR,9aS)-1,2,9,9a-tetrahydrocyclopropa[c]benz[e]indol-4-one], the IC50 under setting [2] was found to be 2 nM.
Consider `CS(=O)(=O)c1ccc2[nH]c(C(=O)N3C[C@@H](CCl)c4c3cc(O)c3ccccc43)cc2c1` [compound 64, 3-(5-Methylsulfonylindole-2-carbonyl)-1-(S)-(chloromethyl)-5-hydroxy-1,2-dihydro-3H-benz[e]indole], for which, under setting [4], the IC50 was found to be 0.003 nM. Moreover, the “increase in cytotoxic potency over (+)-CBI-indole (5)” value under setting [1] is given as 1000 fold.
`CNC(=O)c1ccc2[nH]c(C(=O)N3C[C@@H](CCl)c4c3cc(O)c3ccccc43)cc2c1` [compound 62, 3-(5-Methylcarbamoylindole-2-carbonyl)-1-(S)-(chloromethyl)-5-hydroxy-1,2-dihydro-3H-benz[e]indole]: the “fold less potent than C5 acyl derivative 54” value came out at 5 fold. In addition, the “fold more potent than (+)-CBI-TMI” value under setting [3] stood at 3 fold.
Take `CCCC(=O)c1ccc2[nH]c(C(=O)N3C[C@H]4C[C@@]45C3=CC(=O)c3ccccc35)cc2c1` [compound 57, N^2-[(5-Butyrylindole-2-yl)carbonyl]-(8bR,9aS)-1,2,9,9a-tetrahydrocyclopropa[c]benz[e]indol-4-one]: the IC50 under setting [2] amounted to 0.02 nM.
Turning to `O=C(C1Oc2ccc3[nH]ccc3c2O1)N1C[C@@H](CCl)c2c1cc(O)c1ccccc21` (stereo partly drawn) [compound 74, 3-([1,3]Dioxolo[e]indole-2-carbonyl)-1-(S)-(chloromethyl)-5-hydroxy-1,2-dihydro-3H-benz[e]indole], the “relative cytotoxic potency in words” value is listed as “much more active than the corresponding unconstrained 4,5 dimethoxy derivative 10”.
